Consider 19 molecules from patent US7056947B2, “Aza-peptide epoxides” (Georgia Tech Research Corp., priority 2002, dated 2006).

In the first experiment the target is T1, caspase-3 (Homo sapiens, UniProt P42574).
T1 construct: made in house; host or cells: E. coli
T1 sequence (P42574 29-175 limits assumed): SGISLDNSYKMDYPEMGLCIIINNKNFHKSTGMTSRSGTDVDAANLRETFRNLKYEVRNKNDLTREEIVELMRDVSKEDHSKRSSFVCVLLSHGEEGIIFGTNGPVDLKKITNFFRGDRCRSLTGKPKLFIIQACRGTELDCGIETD
T1 sequence (P42574 176-277 limits assumed): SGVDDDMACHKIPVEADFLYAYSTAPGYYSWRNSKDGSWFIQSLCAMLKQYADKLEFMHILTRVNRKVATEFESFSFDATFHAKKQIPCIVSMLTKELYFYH
The experiment is described as follows: Caspase-3 progress curve assay. The class given is biochemical. Particulars: substrate Z-DEVD-AFC; NI = no inhibition. The protocol: Caspase-3, -6, and -8. Caspase-3, -6 and -8 were expressed in E. coli and purified according to methods previously described by Stennicke and Salvesen. Assays using the fluorogenic substrate Z-DEVD-AFC (λex=400 nm, λem=505 nm) were carried out on a Molecular Devices fMax fluorescence microplate reader. Inhibition rates and equilibria were determined by the progress curve method. The standard 100 μL reaction was started by adding enzyme to a mixture of substrate (final concentration of Z-DEVD-AFC 100 μM) and various amounts of inhibitor in buffer (50 mM Hepes, 100 mM NaCl, 0.1% (w/v) CHAPS, sucrose 10% (w/v), and 10 mM DTT, at pH 7.4). The caspases were pre-activated for 10 min at 37° C. in the presence of 10 mM DTT.
As for `CC(C)[C@H](NC(=O)[C@H](CCC(=O)O)NC(=O)[C@H](CC(=O)O)NC(=O)OCc1ccccc1)C(=O)NN(CC(=O)O)C(=O)[C@H]1O[C@@H]1C(=O)OCc1ccccc1` [25d, (2S,3S)-3-(N^2-(N-Benzyloxycarbonylaspartylglutamylvalyl)-N^1-carboxymethylhydrazinocarbonyl)oxirane-2-carboxylic Acid Benzyl Ester], the “k2 caspase-3” value came to 1915200 ± 209200 M⁻¹ s⁻¹.
Same read-out and setting: the same measure for `CC(NC(=O)[C@H]1O[C@@H]1C(=O)N(CC(=O)O)NC(=O)[C@H](C)NC(=O)[C@@H](NC(=O)CCc1ccccc1)C(C)C)C(=O)NCc1ccccc1` (stereo partly drawn) [23j (S,S), (2S,3S)-2-(1-Benzylcarbamoylethylcarbamoyl)-3-(N^2-(3-phenylpropanoylvalylalanyl)-N^1-carboxymethylhydrazinocarbonyl)oxirane]: 260 ± 25 M⁻¹ s⁻¹; for `CC(C)[C@H](NC(=O)CCc1ccccc1)C(=O)N[C@@H](C)C(=O)NN(CC(=O)O)C(=O)[C@H]1O[C@@H]1C(=O)NC(Cc1ccccc1)C(N)=O` (stereo partly drawn) [23l (S,S), (2S,3S)-2-(1-Amido-phenethylcarbamoyl)-3-(N^2-(3-phenylpropanoylvalylalanyl)-N^1-carboxymethylhydrazinocarbonyl)oxirane]: 625 ± 160 M⁻¹ s⁻¹.
For the molecule `CC[C@H](C)[C@H](NC(=O)OCc1ccccc1)C(=O)N[C@@H](CCC(=O)O)C(=O)N[C@H](C(=O)NN(CC(=O)O)C(=O)[C@H]1O[C@@H]1C(=O)NC(C)C(=O)NCc1ccccc1)[C@@H](C)O` (stereo partly drawn) [27j, (2S,3S)-2-(1-Benzylcarbamoyl-ethylcarbamoyl)-3-(N^2-(N-benzyloxycarbonylisoleucylglutamylthreonyl)-N^1-carboxymethylhydrazinocarbonyl)oxirane], the “k2 caspase-3” value was 3050 M⁻¹ s⁻¹.
In the case of `CC(C)C[C@H](NC(=O)OCc1ccccc1)C(=O)N[C@@H](CCC(=O)O)C(=O)N[C@H](C(=O)NN(CC(=O)O)C(=O)[C@H]1O[C@@H]1C(=O)NCCc1ccccc1)[C@@H](C)O` [26h, (2S,3S)-2-(2-Phenethylcarbamoyl)-3-(N^2-(N -benzyloxycarbonylleucylglutamylthreonyl)-N^1-carboxymethylhydrazinocarbonyl)oxirane], the “k2 caspase-3” value was 2550 ± 25 M⁻¹ s⁻¹.
For the molecule `CC(C)C(NC(=O)OCc1ccccc1)C(=O)NN(CC(=O)O)C(=O)C1OC1CCc1ccccc1` (stereo not drawn) [22a, Cbz-Val-AAsp-(trans)-EP-CH2CH2Ph], the “k2 caspase-3” value is 310 ± 5 M⁻¹ s⁻¹.
The same measure, in the same setting: the same measure for `CC(C)[C@H](NC(=O)OCc1ccccc1)C(=O)NN(CC(=O)O)C(=O)[C@@H]1O[C@H]1c1ccc(Cl)cc1` (relative stereo) [22b, trans-2-(N^2-(N-Benzyloxycarbonylvalyl)-N^1-carboxymethylhydrazinocarbonyl)-3-(4-chlorophenyl)oxirane]: 145 ± 18 M⁻¹ s⁻¹; for `CCOC(=O)C1OC1C(=O)N(CC(=O)O)NC(=O)C(NC(=O)OCc1ccccc1)C(C)C` [22c, Cbz-Val-AAsp-(S,S)-EP-COOEt]: 3650 ± 570 M⁻¹ s⁻¹; for `CC(C)C(NC(=O)OCc1ccccc1)C(=O)NN(CC(=O)O)C(=O)C1OC1C(=O)O` [22n, Cbz-Val-AAsp-(S,S)-EP-COOH]: 1110 ± 340 M⁻¹ s⁻¹.
For `CC(C)C[C@H](NC(=O)OCc1ccccc1)C(=O)N[C@@H](CCC(=O)O)C(=O)N[C@H](C(=O)NN(CC(=O)O)C(=O)[C@H]1O[C@@H]1C(=O)NC(C)C(=O)NCc1ccccc1)[C@@H](C)O` (stereo partly drawn) [26j, (2S,3S)-2-(1-Benzylcarbamoyl-ethylcarbamoyl)-3-(N^2-(N-benzyloxycarbonylleucylglutamylthreonyl)-N^1-carboxymethylhydrazinocarbonyl)oxirane], the “k2 caspase-3” value worked out at 1280 ± 77 M⁻¹ s⁻¹.
For `CCNC(=O)[C@H]1O[C@@H]1C(=O)N(CC(=O)O)NC(=O)[C@H](C)NC(=O)[C@@H](NC(=O)CCc1ccccc1)C(C)C` [23f, (2S,3S)-2-(2-Ethylcarbamoyl)-3-(N^2-(3-phenylpropanoylvalylalanyl)-N^1-carboxymethylhydrazinocarbonyl)oxirane], the “k2 caspase-3” value stood at 1910 ± 370 M⁻¹ s⁻¹.

The next experiment deals with T2, caspase-1 (Homo sapiens, UniProt P29466, D381E).
T2 construct: His tag (N); made in house; host or cells: E. coli
T2 sequence (P29466 120-297 limits assumed): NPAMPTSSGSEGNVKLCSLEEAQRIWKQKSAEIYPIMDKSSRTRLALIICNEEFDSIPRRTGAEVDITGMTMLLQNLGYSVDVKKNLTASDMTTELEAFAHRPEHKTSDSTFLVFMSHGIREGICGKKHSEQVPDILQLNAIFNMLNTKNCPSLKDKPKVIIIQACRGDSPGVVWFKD
T2 sequence (P29466 317-404 D381E limits assumed): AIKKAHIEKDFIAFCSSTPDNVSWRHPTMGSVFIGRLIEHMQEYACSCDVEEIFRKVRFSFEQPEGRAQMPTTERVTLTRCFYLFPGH
The experiment is described as follows: Caspase-1 progress curve assay. The class given is biochemical. The conditions noted are these: D381E variant, substrate Ac-YVAD-AMC, 30° C. An excerpt: Caspase-1. The preparation of the autolytically stable caspase-1 variant used in these studies has been described previously. Briefly, the variant contains a mutation (D381E) which renders it resistant to autolytic inactivation, but has no detectable affect on enzyme activity as compared to the naturally occurring enzyme. The enzyme variant was expressed in E. coli, purified first by immobilized metal chromatography via the N-terminal N-His tag, treated with excess oxidized glutathione to stabilize the reactive thiolate, and then re-purified by size-exclusion chromatography.
Inhibition data was measured using the progress curve assay method. Serial dilutions of each compound were prepared using an initial 8-fold dilution of a DMSO stock into HGE (100 mM HEPES,20% glycerol v/v, 0.5 mM EDTA), followed by seven serial two-fold dilutions into HGE and 12.5% DMSO, thus maintaining constant DMSO through the dilution series. Ten μL of diluted stocks or of vehicle (HGE and 12.5% DMSO) were placed in triplicate onto a 96-well microtiter plate, allowing several compounds to be tested on each plate. The plate was covered to minimize evaporation, and the plate was pre-warmed to 30° C. for 20 minutes. Enzyme was diluted into 10.0 mL of assay buffer (HGE, 5 mM DTT, plus 15 μM Ac-YVAD-AMC, 2 nM approximate final enzyme concentration), and this activated reaction mixture was added to the plate at 90 μL/well. Progress of substrate hydrolysis was monitored for 900 s in a LabSystems (Needham, Mass.) Fluoroskan Ascent fluorescent plate-reader using 385 and 460 nm excitation and emission filters, respectively, and a photomultiplier gain setting of 10. Triplicate curves were averaged and fit by nonlinear regression to the equation for irreversible inactivation shown below.
[formula] where F0 was routinely fixed to zero, since fluorescence values were always adjusted to an origin of 0. The second order rate constant kon (M^−1s^−1) was obtained from the slopes by linear regression, and errors represent the standard deviation of the regression slope.
For the molecule `CC(C)[C@H](NC(=O)[C@H](CCC(=O)O)NC(=O)[C@H](CC(=O)O)NC(=O)OCc1ccccc1)C(=O)NN(CC(=O)O)C(=O)[C@H]1O[C@@H]1C(=O)OCc1ccccc1` [25d, (2S,3S)-3-(N^2-(N-Benzyloxycarbonylaspartylglutamylvalyl)-N^1-carboxymethylhydrazinocarbonyl)oxirane-2-carboxylic Acid Benzyl Ester], the “k2 caspase-1” value was 54690 ± 15913 M⁻¹ s⁻¹.
Regarding `CC(NC(=O)[C@H]1O[C@@H]1C(=O)N(CC(=O)O)NC(=O)[C@H](C)NC(=O)[C@@H](NC(=O)CCc1ccccc1)C(C)C)C(=O)NCc1ccccc1` (stereo partly drawn) [23j (S,S), (2S,3S)-2-(1-Benzylcarbamoylethylcarbamoyl)-3-(N^2-(3-phenylpropanoylvalylalanyl)-N^1-carboxymethylhydrazinocarbonyl)oxirane], the “k2 caspase-1” value turned out to be 13400 M⁻¹ s⁻¹.
Consider `CC(C)[C@H](NC(=O)CCc1ccccc1)C(=O)N[C@@H](C)C(=O)NN(CC(=O)O)C(=O)[C@H]1O[C@@H]1C(=O)NC(Cc1ccccc1)C(N)=O` (stereo partly drawn) [23l (S,S), (2S,3S)-2-(1-Amido-phenethylcarbamoyl)-3-(N^2-(3-phenylpropanoylvalylalanyl)-N^1-carboxymethylhydrazinocarbonyl)oxirane], for which the “k2 caspase-1” value came out at 32740 ± 9937 M⁻¹ s⁻¹.
Turning to `CC(NC(=O)[C@@H]1O[C@H]1C(=O)N(CC(=O)O)NC(=O)[C@H](C)NC(=O)[C@@H](NC(=O)CCc1ccccc1)C(C)C)C(=O)NCc1ccccc1` (stereo partly drawn) [23j (R,R), (2R,3R)-2-(1-Benzylcarbamoylethylcarbamoyl)-3-(N^2-(3-phenylpropanoylvalylalanyl)-N^1-carboxymethylhydrazinocarbonyl)oxirane], the “k2 caspase-1” value turned out to be 268 ± 75 M⁻¹ s⁻¹.
On the same count and under the same terms, the same measure for `CCOC(=O)[C@@H]1O[C@H]1C(=O)N(CC(=O)O)NC(=O)[C@H](C)NC(=O)[C@@H](NC(=O)CCc1ccccc1)C(C)C` [23c (R,R)]: 6290 ± 1524 M⁻¹ s⁻¹.
`CC(NC(=O)C(NC(=O)CCc1ccccc1)C(C)C)C(=O)NN(CC(=O)O)C(=O)[C@@H]1O[C@H]1C(=O)NCc1ccccc1` (stereo partly drawn) [23g (R,R), (2R,3R)-2-(2-Benzylcarbamoyl)-3-(N^2-(3-phenylpropanoylvalylalanyl)-N^1-carboxymethylhydrazinocarbonyl)oxirane]: the “k2 caspase-1” value came out at 1630 ± 522 M⁻¹ s⁻¹.
Same read-out and setting: for `CC(C)[C@H](NC(=O)CCc1ccccc1)C(=O)N[C@@H](C)C(=O)NN(CC(=O)O)C(=O)[C@@H]1O[C@H]1C(=O)NCC(O)c1ccccc1` (stereo partly drawn) [23i (R,R), (2R,3R)-2-(2-Hydroxy-2-phenylethylcarbamoyl)-3-(N^2-(3-phenylpropanoylvalylalanyl)-N^1-carboxymethylhydrazinocarbonyl)oxirane] the value was 400 ± 19 M⁻¹ s⁻¹; for `CC(C)[C@H](NC(=O)CCc1ccccc1)C(=O)N[C@@H](C)C(=O)NN(CC(=O)O)C(=O)[C@@H]1O[C@H]1CCc1ccccc1` (relative stereo) [23a, trans-3-(N^2-(N-3-Phenylpropanoylvalylalanyl)-N^1-carboxylmethylhydrazinocarbonyl)-2-(2-phenylethyl)oxirane], 300 ± 144 M⁻¹ s⁻¹; for `CC(C)[C@H](NC(=O)CCc1ccccc1)C(=O)N[C@@H](C)C(=O)NN(CC(=O)O)C(=O)[C@@H]1O[C@H]1C(=O)NC(Cc1ccccc1)C(N)=O` (stereo partly drawn) [23l (R,R), (2R,3R)-2-(1-Amido-phenethylcarbamoyl)-3-(N^2-(3-phenylpropanoylvalylalanyl)-N^1-carboxymethylhydrazinocarbonyl)oxirane], 330 M⁻¹ s⁻¹.
With `CC(C)[C@H](NC(=O)CCc1ccccc1)C(=O)N[C@@H](C)C(=O)NN(CC(=O)O)C(=O)[C@@H]1O[C@H]1C(=O)OCc1ccccc1` [23d (R,R), (2R,3R)-3-(N^2-(3-Phenylpropanoylvalylalanyl)-N^1-carboxymethylhydrazinocarbonyl)oxirane-2-carboxylic Acid Benzyl Ester], the “k2 caspase-1” value was 1860 ± 302 M⁻¹ s⁻¹.
Take `CC(C)[C@H](NC(=O)CCc1ccccc1)C(=O)N[C@@H](C)C(=O)NN(CC(=O)O)C(=O)[C@@H]1O[C@H]1C(=O)NCCc1ccccc1` [23h (R,R), (2R,3R)-2-(2-Phenethylcarbamoyl)-3-(N^2-(3-phenylpropanoylvalylalanyl)-N^1-carboxymethylhydrazinocarbonyl)oxirane]: the “k2 caspase-1” value is 950 ± 51 M⁻¹ s⁻¹.
